According to PubChem BioAssay (NCI):
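Briefly, cells in 96-well plates were exposed to five compound concentrations for 48 h, and endpoints were estimated by linear interpolation. Abbreviation: GI50, concentration required for 50% inhibition of growth. Definition used: TGI = concentration required for complete inhibition of growth.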

Assays:
Assay in all cases: inhibition of tumour cell growth, NCI panel, 48 h
NCI-H23 lung = test system: NCI-H23 lung
SNB-19 CNS = test system: SNB-19 CNS
SK-MEL-2 melanoma = test system: SK-MEL-2 melanoma
PC-3 prostate = test system: PC-3 prostate
OVCAR-3 ovarian = test system: OVCAR-3 ovarian
LOX IMVI melanoma = test system: LOX IMVI melanoma
RXF 393 renal = test system: RXF 393 renal
IGROV1 ovarian = test system: IGROV1 ovarian
HCC-2998 colon = test system: HCC-2998 colon
SNB-75 CNS = test system: SNB-75 CNS

Structure (SMILES) | TGI (NCI-H23 lung) | TGI (SNB-19 CNS) | TGI (SK-MEL-2 melanoma) | TGI (PC-3 prostate) | TGI (OVCAR-3 ovarian) | TGI (LOX IMVI melanoma) | TGI (RXF 393 renal) | TGI (IGROV1 ovarian) | TGI (HCC-2998 colon) | TGI (SNB-75 CNS) | GI50 (NCI-H23 lung) | GI50 (SNB-19 CNS) | GI50 (SK-MEL-2 melanoma) | GI50 (PC-3 prostate) | GI50 (OVCAR-3 ovarian) | GI50 (LOX IMVI melanoma) | GI50 (RXF 393 renal) | GI50 (IGROV1 ovarian) | GI50 (HCC-2998 colon) | GI50 (SNB-75 CNS)
O=C1C=C(N2CCN(c3ccccn3)CC2)C(=O)c2c(O)ccc(O)c21 | 13 µM | 78.6 µM | 18.6 µM | > 56.2 µM | 20.3 µM | > 45 µM | 43.4 µM | 43.5 µM | 43.1 µM | 23.7 µM |  |  |  |  |  |  |  |  |  | 
[N-]=[N+]=C(C(=O)C(=[N+]=[N-])C(=O)c1ccccc1)C(=O)c1ccccc1 | > 100 µM | > 100 µM | > 100 µM | > 100 µM | > 100 µM | > 100 µM | > 100 µM | > 100 µM | > 100 µM | > 100 µM |  |  |  |  |  |  |  |  |  | 
O=C(CSc1nc2ccc(I)cc2c(=O)n1Cc1ccccc1)NN1C(=O)CCC1=O | 66.6 µM | > 100 µM | > 100 µM | > 100 µM | 70.6 µM | > 100 µM | 62.5 µM | 90.9 µM | > 100 µM | > 100 µM |  |  |  |  |  |  |  |  |  | 
COC(=O)C(C(=O)C(=O)NC1Nc2ccc(C)cc2S1)c1nc2ccc(Cl)cc2[nH]c1=O (centres undefined) | > 100 µM | > 100 µM | > 100 µM | > 100 µM | > 100 µM | > 100 µM | > 100 µM | > 100 µM | > 100 µM | > 100 µM |  |  |  |  |  |  |  |  |  | 
Cc1cn([C@H]2[C@@H](CO)C[C@H]2O)c(=O)[nH]c1=O | > 100 µM |  | > 100 µM | > 100 µM | > 100 µM | > 100 µM | > 100 µM | > 100 µM | > 100 µM | > 100 µM |  |  |  |  |  |  |  |  |  | 
N#CCCC1(CCC#N)CCCCCCC(CCC#N)(CCC#N)C(O)C1O (centres undefined) | > 100 µM | > 100 µM | > 100 µM | > 100 µM | > 100 µM | > 100 µM | > 100 µM | > 100 µM | > 100 µM | > 100 µM |  |  |  |  |  |  |  |  |  | 
C/C(=N\Nc1ccccc1)C(CN(C)C)C(c1ccccc1)c1c(O)c2ccccc2oc1=O (centres undefined) | > 100 µM | > 100 µM | > 100 µM | > 100 µM | > 100 µM | > 100 µM | > 100 µM | > 100 µM | > 100 µM | > 100 µM |  |  |  |  |  |  |  |  |  | 
COc1cc(-n2cc(-c3cc(O)c(C/C=C(\C)CCC=C(C)C)c(O)c3)nn2)cc2c1O[C@]1(C)CC[C@@H](O)C(C)(C)[C@H]1C2 | 31.3 µM | 40.3 µM | 11.5 µM | > 84.3 µM | 14.3 µM | 1.09 µM | 0.337 µM | 28.5 µM | 19 µM | 15 µM | 3.26 µM | 1.89 µM | 0.672 µM | 0.598 µM | 2.58 µM | 0.186 µM | 0.0214 µM | 1.85 µM | 2.45 µM | 0.208 µM
O=C1OI(C#Cc2ccccc2)c2ccccc21 | 10.8 µM | 21.8 µM | 44.1 µM | 18.3 µM | 10.6 µM | > 100 µM | 97.5 µM | 6.17 µM | 21.4 µM | 10.3 µM |  |  |  |  |  |  |  |  |  | 
CC1=C2C(=O)c3ccccc3C(=O)[C@H]2C[C@@H](N2CCCCCC2=O)O1 | 31.1 µM | 39.2 µM | 40 µM | 44.4 µM | 38.2 µM | 44.5 µM | 55.9 µM | 30.7 µM | 31.4 µM | 45.1 µM |  |  |  |  |  |  |  |  |  | 
Oc1[nH]c2ccccc2c1/C=c1/cc2c(c(-c3ccc(C(F)(F)F)cc3)n1)=Nc1ccccc1-2 | 31.8 µM | > 100 µM | 28.7 µM | 47.4 µM | 7.69 µM | 22.5 µM | 15.3 µM | 28.8 µM | 24.4 µM | 20.7 µM | 10.9 µM | 6.81 µM | 8.66 µM | 2.59 µM | 2.36 µM | 8.87 µM | 3.08 µM | 8.25 µM | 9.32 µM | 1.45 µM
CNc1ccc(Cl)cc1S(=O)(=O)c1ccccc1[N+](=O)[O-] | > 100 µM | > 100 µM | > 100 µM | > 100 µM | > 100 µM | > 100 µM | > 100 µM | > 100 µM | > 100 µM | > 100 µM |  |  |  |  |  |  |  |  |  | 
CC(C)(C)OC(=O)N1CCc2c(n(C/C=C/c3ccccc3)[nH]c2=O)C1 | > 100 µM | > 100 µM | > 100 µM | > 100 µM | > 100 µM | > 100 µM | > 100 µM | > 100 µM | > 100 µM | > 100 µM |  |  |  |  |  |  |  |  |  | 
NC(=O)C1=CC2C3C=CC2(O)C(=O)OC3O1 (centres undefined) | 9.47 µM | 60.9 µM | > 40.2 µM | 37.7 µM | 24.7 µM | 5.18 µM | 8.23 µM | 11.7 µM | 26.7 µM | 29.4 µM |  |  |  |  |  |  |  |  |  | 
O=P(O)(O)CN1CCNCCN(CP(=O)(O)O)CCNCC1 | > 100 µM | > 100 µM | > 100 µM | > 100 µM | > 100 µM | > 100 µM | > 100 µM | > 51.2 µM | > 100 µM | > 100 µM |  |  |  |  |  |  |  |  |  | 
